Assay [1] addresses T1, CB1R (hCB1R) (Homo sapiens, UniProt P21554).
T1 construct: gene CNR1; expressed in HEK-293T cells; membrane fractions
Description: biochemical. In kind it is HEK-293T membranes. Further details: [3H]CP-55,940 competition radioligand binding, membrane filtration, scintillation counting. An excerpt: (§1) In vitro binding affinities of the alleged bitopic ligands 18–29 (Table 1) and the corresponding monovalent counterparts 6–17 (Table S1) were obtained from [^3H]CP‐55,940 competition‐binding assays using membrane fractions of the human CB1R and CB2R, respectively, expressed in HEK‐293T cells. […] Addition of the second pharmacophore makes bivalent ligands capable of binding CB2R in a selective manner. Optimal spacer length for N1‐ and N2‐ethyl derivatives is from 10 (n=8) to 14 (n=12) […]. S23 Aldrich, Madrid, Spain). Membranes were resuspended in the corresponding buffer and were incubated (90 min at 30 °C) with the radioligand and each compound at a high concentration (40 μM) with the purpose of determining the % of radioligand displacement. […] Nonspecific binding was determined with 10 μM [compound left out] (Sigma-Aldrich, Madrid, Spain) and total radioligand binding by incubation with the membranes in the absence of any compound. Filtration was performed by a Harvester filtermate (PerkinElmer, Boston, MA, USA) with Filtermat A GF/C filters pretreated with polyethylenimine 0.05%. After filtering, the filter was washed nine times with binding buffer and dried, and a melt-on scintillation sheet (MeltilexTM A, PerkinElmer, Boston, MA, USA) was melted onto it. Then, radioactivity was quantified by a […] (Wallac MicroBeta Trilux, PerkinElmer, Boston, MA, USA). Competition binding data were analyzed by using GraphPad Prism, version 5.02 (GraphPad Software Inc., San Diego, CA, USA), and Ki values are expressed as the mean ± SEM of at least three experiments performed in triplicate for each. 2.2- cAMP determination assays. Determination of cAMP levels in HEK293 cells stably expressing the CB2R was performed using the Lance-Ultra cAMP kit (PerkinElmer) according to the manufacturer’s instructions. Briefly, HEK293 cells expressing the CB2R were dispensed in white 384-well microplates at a density of 5.000 cells per well. Finally, cells were incubated for 60 min at room temperature with HTRF assay reagents, and fluorescence at 665 nm was analyzed on a PHERAstar Flagship microplate reader equipped with an HTRF optical module (BMG Labtech). Data analysis was made based on the fluorescence ratio emitted by the labeled cAMP probe (665 nm) over the light emitted by the europium cryptate-labeled anti-cAMP antibody (620 nm). A standard curve was used to calculate cAMP concentration. Forskolin stimulated cAMP levels were normalized to 100%. Data was analyzed by using […]

Assay [2] addresses T2, CB2R (hCB2R) (Homo sapiens, UniProt P34972).
T2 construct: gene CNR2; expressed in HEK-293T cells
Put plainly: biochemical. In kind it is HEK-293T membranes. Further details: [3H]CP-55,940 competition radioligand binding, membrane filtration, scintillation counting.
Source text: as §1

Assay [3] has as its target T2, CB2R (hCB2R). Put plainly: [3H]CP-55, […] competition binding, HEK-293T membranes. To be noted: read-out: CB2R Ki [μM]^[b].
The target in assay [4] is T1, CB1R (hCB1R). The description is as above. To be noted: read-out: CB1R Ki [μM]^[b].

T1 sequence (P21554 whole entry): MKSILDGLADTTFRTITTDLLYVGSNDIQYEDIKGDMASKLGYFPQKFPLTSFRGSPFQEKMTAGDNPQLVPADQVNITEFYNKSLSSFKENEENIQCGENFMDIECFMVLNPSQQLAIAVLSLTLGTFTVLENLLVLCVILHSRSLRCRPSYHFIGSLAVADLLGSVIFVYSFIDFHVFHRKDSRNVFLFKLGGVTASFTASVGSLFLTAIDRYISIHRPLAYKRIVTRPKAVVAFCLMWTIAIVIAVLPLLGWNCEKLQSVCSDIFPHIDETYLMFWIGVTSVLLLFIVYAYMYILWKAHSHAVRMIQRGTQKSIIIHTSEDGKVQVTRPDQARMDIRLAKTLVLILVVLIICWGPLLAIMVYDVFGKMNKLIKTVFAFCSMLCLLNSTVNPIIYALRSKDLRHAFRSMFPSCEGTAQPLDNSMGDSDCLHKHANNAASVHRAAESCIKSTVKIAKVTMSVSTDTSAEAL
T2 sequence (P34972 whole entry): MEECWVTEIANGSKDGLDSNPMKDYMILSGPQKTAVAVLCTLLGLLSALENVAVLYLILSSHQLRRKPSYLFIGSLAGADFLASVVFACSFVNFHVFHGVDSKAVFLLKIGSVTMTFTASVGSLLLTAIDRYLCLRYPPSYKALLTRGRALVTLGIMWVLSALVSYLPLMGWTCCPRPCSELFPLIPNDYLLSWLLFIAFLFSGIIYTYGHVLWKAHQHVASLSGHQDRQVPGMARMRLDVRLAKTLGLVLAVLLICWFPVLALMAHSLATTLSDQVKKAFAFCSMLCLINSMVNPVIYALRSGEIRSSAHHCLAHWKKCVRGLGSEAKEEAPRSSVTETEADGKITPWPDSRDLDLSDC

Usually Ki stands for the equilibrium dissociation constant of an inhibitor or competing ligand from its target. As to `CCCCCCOc1cc(C(C)(C)CCCCCC)cc2c1-c1c(cnn1CC)C(C)(C)O2` [compound 6, 7-(1,1-Dimethylheptyl)-1-ethyl-9-hexyloxy1,4-Dihydro-4,4-dimethylchromeno[4,3-c]pyrazole], the Ki at CB1R (hCB1R) [1] and on CB2R (hCB2R) [2] was above 40 µM throughout.

As to `CCCCCCOc1cc(C(C)(C)CCCCCC)cc2c1-c1nn(CC)cc1C(C)(C)O2` [compound 7, 7-(1,1-Dimethylheptyl)-2-ethyl-9-hexyloxy-2,4-dihydro-4,4-dimethylchromeno[4,3-c]pyrazole], the Ki on CB1R (hCB1R) [1] and at CB2R (hCB2R) [2] was above 40 µM in each case.

As for `CCCCCCCCOc1cc(C(C)(C)CCCCCC)cc2c1-c1c(cnn1CC)C(C)(C)O2` [compound 8, 7-(1,1-Dimethylheptyl)-1-ethyl-1,4-dihydro-4,4-dimethyl-9-octyloxychromeno[4,3-c]pyrazole], the Ki on CB1R (hCB1R) [1] and at CB2R (hCB2R) [2] was above 40 µM throughout.

Consider `CCCCCCCCOc1cc(C(C)(C)CCCCCC)cc2c1-c1nn(CC)cc1C(C)(C)O2` [compound 9, 7-(1,1-Dimethylheptyl)-2-ethyl-2,4-dihydro-4,4-dimethyl-9-octyloxychromeno[4,3-c]pyrazole], for which the Ki on CB1R (hCB1R) [1] and on CB2R (hCB2R) [2] was above 40 µM in each case.

On to `CCCCCCCCCCOc1cc(C(C)(C)CCCCCC)cc2c1-c1c(cnn1CC)C(C)(C)O2` [compound 10, 9-Decyloxy-7-(1,1-dimethylheptyl)-1-ethyl-1,4-dihydro-4,4-dimethylchromeno[4,3-c]pyrazole], for which the Ki on CB1R (hCB1R) [1] and on CB2R (hCB2R) [2] was above 40 µM throughout.

As to `CCCCCCCCCCOc1cc(C(C)(C)CCCCCC)cc2c1-c1nn(CC)cc1C(C)(C)O2` [compound 11, 9-Decyloxy-7-(1,1-dimethylheptyl)-2-ethyl-2,4-dihydro-4,4-dimethylchromeno[4,3-c]pyrazole], the Ki on CB1R (hCB1R) [1] and at CB2R (hCB2R) [2] was above 40 µM each time.

Consider `CCCCCCCCCCCCOc1cc(C(C)(C)CCCCCC)cc2c1-c1c(cnn1CC)C(C)(C)O2` [compound 12, 7-(1,1-Dimethylheptyl)-9-dodecyloxy-1-ethyl-1,4-dihydro-4,4-dimethylchromeno[4,3-c]pyrazole], for which the Ki on CB1R (hCB1R) [1] and on CB2R (hCB2R) [2] was above 40 µM throughout.

As for `CCCCCCCCCCCCOc1cc(C(C)(C)CCCCCC)cc2c1-c1nn(CC)cc1C(C)(C)O2` [compound 13, 7-(1,1-Dimethylheptyl)-9-dodecyloxy-2-ethyl-2,4-dihydro-4,4-dimethylchromeno[4,3-c]pyrazole], the Ki on CB1R (hCB1R) [1] and on CB2R (hCB2R) [2] was above 40 µM throughout.

For the compound `CCCCCCCCCCCCCCOc1cc(C(C)(C)CCCCCC)cc2c1-c1c(cnn1CC)C(C)(C)O2` [compound 14, 7-(1,1-Dimethylheptyl)-1-ethyl-1,4-dihydro-4,4-dimethyl-9-tetradecyloxychromeno[4,3-c]pyrazole], the Ki on CB1R (hCB1R) [1] and at CB2R (hCB2R) [2] was above 40 µM in each case.

In the case of `CCCCCCCCCCCCCCCCOc1cc(C(C)(C)CCCCCC)cc2c1-c1c(cnn1CC)C(C)(C)O2` [compound 16, 7-(1,1-Dimethylheptyl)-1-ethyl-9-hexadecyloxy-1,4-dihydro-4,4-dimethylchromeno[4,3-c]pyrazole], the Ki at CB1R (hCB1R) [1] and on CB2R (hCB2R) [2] was above 40 µM throughout.

As for `CCCCCCC(C)(C)c1cc(OCCCCCCOc2cc(C(C)(C)CCCCCC)cc3c2-c2c(cnn2CC)C(C)(C)O3)c2c(c1)OC(C)(C)c1cnn(CC)c1-2` [compound 18, bivalent chromenopyrazole 18 (R1 = N1-Et, n = 4)], the figures for the Ki on CB2R (hCB2R) [3] and on CB1R (hCB1R) [4] were 28.1 ± 1.6 µM and above 40 µM, respectively.

On to `CCCCCCC(C)(C)c1cc(OCCCCCCOc2cc(C(C)(C)CCCCCC)cc3c2-c2nn(CC)cc2C(C)(C)O3)c2c(c1)OC(C)(C)c1cn(CC)nc1-2` [compound 19, bivalent chromenopyrazole 19 (R1 = N2-Et, n = 4)], for which the Ki on CB2R (hCB2R) [3] was 12.4 ± 2 µM; at CB1R (hCB1R) [4] it was above 40 µM.
